Assay [1] has as its target T1, CtBP1/BARS (Rattus norvegicus, UniProt Q9Z2F5). Put plainly: ITC; also tryptophan fluorescence quenching (Kd […]). The class given is binding. Set-up: His-CtBP1/BARS wt, full-length (CtBP1-S/BARS).
The target of assay [2] is T1, CtBP1/BARS. The assay is described as follows: size-exclusion chromatography (dimer to tetramer shift, […] NAD+); pull-down of self-association. It is filed as biochemical. A general note: Size exclusion chromatography separates by hydrodynamic size, large species first.

The source of these data is article PMC11071220, “Identification and characterization of a new potent inhibitor targeting CtBP1/BARS in melanoma cells” (Journal of Experimental & Clinical Cancer Research : CR, 2024).

By Kd is commonly meant the equilibrium constant for the complex coming apart. Read a low Kd as higher affinity.

In turn, `O=C(Nc1ccc([N+](=O)[O-])cc1)Nc1ccc(S(=O)(=O)Nc2ccc(Cl)c(Cl)c2)cc1` [Comp.11, N-(3,4-dichlorophenyl)-4-{[(4-nitrophenyl)carbamoyl]amino}benzenesulfonamide] yielded a dissociation constant (Kd) at CtBP1/BARS [1] of 660 ± 200 nM. Take `NC(=O)c1ccc[n+]([C@@H]2O[C@H](COP(=O)([O-])OP(=O)(O)OC[C@H]3O[C@@H](n4cnc5c(N)ncnc54)[C@H](O)[C@@H]3O)[C@@H](O)[C@H]2O)c1` [NAD+]: the “size-exclusion chromatography (dimer to tetramer shift, 100 μM NAD+); pull-down” value on CtBP1/BARS [2] was “The addition of NAD^+ shifts the elution patterns so that the majority of CtBP1/BARS elutes as a tetramer”.
